Measured values taken from the supplement of paper PMC10307832.

Assays:
Test in all cases: relative viability (nuclei count vs DMSO), 5 days (fraction); higher = more cells survive
[1] = tested on: A-427
Method in brief: (§1)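 Relative viability equals treated-well nuclei counts divided by vehicle-well nuclei counts. Counts came from 4× images of lung cancer cell lines grown in 1536-well plates for 5 days after pin-tool dosing on the day after seeding. Dosing used one drug alone or a fixed anchor-drug dose plus five library-drug doses (not always all listed) in √10 steps, and values are medians of duplicate plates.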

[2] = tested on: A549
Method in brief: as §1

[3] = tested on: CAL-12T
Method in brief: as §1

[4] = tested on: Calu-6
Method in brief: as §1

[5] = tested on: EBC-1
Method in brief: as §1

[6] = tested on: IA-LM
Method in brief: as §1

[7] = tested on: LK-2
Method in brief: as §1

[8] = tested on: NCI-H1299
Method in brief: as §1

[9] = tested on: NCI-H1703
Method in brief: as §1

[10] = tested on: NCI-H1734
Method in brief: as §1

[11] = tested on: NCI-H2009
Method in brief: as §1

[12] = tested on: UMC-11
Method in brief: as §1

[13] = tested on: NCI-H1650
Method in brief: as §1

COc1nc(C)cnc1NS(=O)(=O)c1cccnc1-c1ccc(-c2nnco2)cc1 [Zibotentan] + Cc1nc(NC(=O)N2CCC[C@H]2C(N)=O)sc1-c1ccnc(C(C)(C)C(F)(F)F)c1 [Alpelisib] (partner 2 µM) gave a relative viability ([1]; first compound 0.08 µM) of 1.08, a relative viability ([1]; first compound 0.253 µM) of 1.14 and a relative viability ([1]; first compound 0.8 µM) of 1.09. It also gave a relative viability ([1]; first compound 2.53 µM) of 1.08, a relative viability ([2]; first compound 0.08 µM) of 0.852 and a relative viability ([2]; first compound 0.253 µM) of 0.578. For the same molecule, the relative viability ([2]; first compound 0.8 µM) was 0.704, the relative viability ([2]; first compound 2.53 µM) was 0.88 and the relative viability ([3]; first compound 0.08 µM) was 1.25. For the same molecule, the relative viability ([3]; first compound 0.253 µM) was 0.923, the relative viability ([3]; first compound 0.8 µM) was 1.33 and the relative viability ([3]; first compound 2.53 µM) was 1.23. The relative viability ([4]; first compound 0.08 µM) was 1, the relative viability ([4]; first compound 0.253 µM) was 0.986 and the relative viability ([4]; first compound 0.8 µM) was 0.98. It also gave a relative viability ([4]; first compound 2.53 µM) of 1.1, a relative viability ([5]; first compound 0.08 µM) of 0.826 and a relative viability ([5]; first compound 0.253 µM) of 0.855. It also gave a relative viability ([5]; first compound 0.8 µM) of 0.944, a relative viability ([5]; first compound 2.53 µM) of 0.857 and a relative viability ([6]; first compound 0.08 µM) of 0.799. It also gave a relative viability ([6]; first compound 0.253 µM) of 0.725, a relative viability ([6]; first compound 0.8 µM) of 0.646 and a relative viability ([6]; first compound 2.53 µM) of 0.812. The relative viability ([7]; first compound 0.08 µM) was 1.08, the relative viability ([7]; first compound 0.253 µM) was 0.911 and the relative viability ([7]; first compound 0.8 µM) was 0.889. The relative viability ([7]; first compound 2.53 µM) was 1.46, the relative viability ([8]; first compound 0.08 µM) was 1.06 and the relative viability ([8]; first compound 0.253 µM) was 1.05. It also gave a relative viability ([8]; first compound 0.8 µM) of 1.06, a relative viability ([8]; first compound 2.53 µM) of 1.07 and a relative viability ([9]; first compound 0.08 µM) of 0.363. For the same molecule, the relative viability ([9]; first compound 0.253 µM) was 0.386, the relative viability ([9]; first compound 0.8 µM) was 0.464 and the relative viability ([9]; first compound 2.53 µM) was 0.237. It also gave a relative viability ([10]; first compound 0.08 µM) of 0.794, a relative viability ([10]; first compound 0.253 µM) of 0.726 and a relative viability ([10]; first compound 0.8 µM) of 0.681. It also gave a relative viability ([10]; first compound 2.53 µM) of 0.686, a relative viability ([11]; first compound 0.08 µM) of 1.14 and a relative viability ([11]; first compound 0.253 µM) of 1.1. The relative viability ([11]; first compound 0.8 µM) was 1.18, the relative viability ([11]; first compound 2.53 µM) was 1.2 and the relative viability ([12]; first compound 0.08 µM) was 0.861. The relative viability ([12]; first compound 0.253 µM) was 0.961, the relative viability ([12]; first compound 0.8 µM) was 0.925 and the relative viability ([12]; first compound 2.53 µM) was 0.971.

O=c1cc(-c2cccc3c2Sc2ccccc2S3)oc(N2CCOCC2)c1 + CC(C)C[C@H](NC(=O)[C@H](Cc1ccccc1)NC(=O)c1cnccn1)B(O)O [Bortezomib] (partner 0.002 µM) gave a relative viability ([1]; first compound 0.08 µM) of 1.09, a relative viability ([1]; first compound 0.253 µM) of 0.977 and a relative viability ([1]; first compound 0.8 µM) of 0.999. For the same molecule, the relative viability ([1]; first compound 2.53 µM) was 0.931, the relative viability ([1]; first compound 8 µM) was 1.03 and the relative viability ([3]; first compound 0.08 µM) was 0.716. The relative viability ([3]; first compound 0.253 µM) was 0.945, the relative viability ([3]; first compound 0.8 µM) was 1.02 and the relative viability ([3]; first compound 2.53 µM) was 0.98. It also gave a relative viability ([3]; first compound 8 µM) of 1.05, a relative viability ([4]; first compound 0.08 µM) of 0.91 and a relative viability ([4]; first compound 0.253 µM) of 1.02. For the same molecule, the relative viability ([4]; first compound 0.8 µM) was 1.01, the relative viability ([4]; first compound 2.53 µM) was 0.974 and the relative viability ([4]; first compound 8 µM) was 0.976. It also gave a relative viability ([5]; first compound 0.08 µM) of 0.602, a relative viability ([5]; first compound 0.253 µM) of 0.535 and a relative viability ([5]; first compound 0.8 µM) of 0.546. The relative viability ([5]; first compound 2.53 µM) was 0.424, the relative viability ([5]; first compound 8 µM) was 0.448 and the relative viability ([6]; first compound 0.08 µM) was 0.833. It also gave a relative viability ([6]; first compound 0.253 µM) of 0.946, a relative viability ([6]; first compound 0.8 µM) of 0.799 and a relative viability ([6]; first compound 2.53 µM) of 0.949. The relative viability ([6]; first compound 8 µM) was 0.905, the relative viability ([8]; first compound 0.08 µM) was 1.02 and the relative viability ([8]; first compound 0.253 µM) was 1.02. It also gave a relative viability ([8]; first compound 0.8 µM) of 1.05, a relative viability ([8]; first compound 2.53 µM) of 0.997 and a relative viability ([8]; first compound 8 µM) of 1.01. It also gave a relative viability ([13]; first compound 0.08 µM) of 0.212, a relative viability ([13]; first compound 0.253 µM) of 0.168 and a relative viability ([13]; first compound 0.8 µM) of 0.189. For the same molecule, the relative viability ([13]; first compound 2.53 µM) was 0.16, the relative viability ([13]; first compound 8 µM) was 0.184 and the relative viability ([9]; first compound 0.253 µM) was 0.356. It also gave a relative viability ([9]; first compound 0.8 µM) of 0.384, a relative viability ([9]; first compound 2.53 µM) of 0.346 and a relative viability ([9]; first compound 8 µM) of 0.285. It also gave a relative viability ([10]; first compound 0.08 µM) of 0.865, a relative viability ([10]; first compound 0.253 µM) of 1.06 and a relative viability ([10]; first compound 0.8 µM) of 1.05. For the same molecule, the relative viability ([10]; first compound 2.53 µM) was 0.844, the relative viability ([10]; first compound 8 µM) was 1.18 and the relative viability ([11]; first compound 0.08 µM) was 0.936. It also gave a relative viability ([11]; first compound 0.253 µM) of 1.1, a relative viability ([11]; first compound 0.8 µM) of 0.952 and a relative viability ([11]; first compound 2.53 µM) of 0.871. The relative viability ([11]; first compound 8 µM) was 0.795, the relative viability ([12]; first compound 0.08 µM) was 0.774 and the relative viability ([12]; first compound 0.253 µM) was 1.19. For the same molecule, the relative viability ([12]; first compound 0.8 µM) was 1.24, the relative viability ([12]; first compound 2.53 µM) was 0.535 and the relative viability ([12]; first compound 8 µM) was 1.01.
